Source: paper PMC3261753 (Biochemistry, 2011)

Legend:
[1] = test system: S. pneumoniae gyrase resistance mutations; details: cited from earlier work
[2] = test system: S. pneumoniae topoisomerase IV resistance mutations; details: cited from earlier work
[3] = test system: wild-type B. anthracis topoisomerase IV; type: biochemical, Bacillus anthracis

## O=C(O)c1cn(C2CC2)c2cc(N3CCNCC3)c(F)cc2c1=O [Ciprofloxacin]
[1]
  Drop in potency with mutant enzyme: ~ 8 fold
[2]
  Drop in potency with mutant enzyme: > 16 fold

## Cc1c(N2CC[C@@H](CN)C2)c(F)cc2c(=O)n(N)c(=O)n(C3CC3)c12 [8-methyl-quinazoline-2,4-dione, 3-Amino-7-[(3S)-3-(aminomethyl)-1-pyrrolidinyl]-1-cyclopropyl-6-fluoro-8-methyl-2,4(1H,3H) -quinazolinedione]
[3]
  CC3 (concentration of drug required to triple the percent DNA cleavage observed in the absence of drug): 0.20 µM
  Max. DNA cleavage: 29.0%
  Mg2+ concentration for half-maximal DNA cleavage: ~ 0.35 mM
  Mg2+ concentration for maximal DNA cleavage: ~ 1 mM
  Potency relative to ciprofloxacin (as reflected by the CC3 value): ~ 2.5 times

## C[C@H]1COc2c(N3CCN(C)CC3)c(F)cc3c(=O)c(C(=O)O)cn1c23 [Levofloxacin, levofloxacin]
[3]
  CC3 (concentration of drug required to triple the percent DNA cleavage observed in the absence of drug): 1.45 µM
  Drug concentration that generated maximal DNA cleavage: 20 µM
  Max. DNA cleavage: 30.4%
  Relative potency/efficacy of DNA cleavage enhancement among quinolones: most efficacious

## C[C@@H]1CN(c2c(F)c(N)c3c(=O)c(C(=O)O)cn(C4CC4)c3c2F)C[C@H](C)N1 [sparfloxacin]
[3]
  Relative potency/efficacy of DNA cleavage enhancement among quinolones: least potent and efficacious quinolone examined
